Source: US20220362182A1, “METHODS FOR REVERSING HEPATIC STEATOSIS” (BRIGHTSEED, INC., priority 2020, published 2022)
Entries after “also recorded” stand apart in the source; their conditions may differ. Like-named read-outs stand apart in the source and are kept apart here.

Tests used:
hepatic steatosis = assay: oral administration in mice (hepatic steatosis); type: in vivo, mouse; details: subsequent studies
SPNS2 mRNA [1] = assay: SPNS2 qPCR in mouse liver; type: in vivo
Procedure: (§1) Quantitative PCR (Q-PCR) from in vitro cell culture experiments used total RNA purified using RNeasy Kits (Qiagen). For liver tissue samples, total RNA was isolated using Trizol (Invitrogen) and prepared for RNAseq (mouse liver DMSO and NCT, N=3). cDNA was amplified using 3 μg of total RNA using qScript cDNA SuperMix (Quanta BioSciences, Beverly, Mass., USA). QPCR analysis was performed using SYBR® Select Master Mix (Applied Biosystems) and ABI 7900HT (Applied Biosystems, Thermo Fisher Scientific). The Ct values of mRNA expression were then normalized to the 18 s rRNA values and are expressed as fold change over samples from mice fed normal chow for in vivo experiments or DMSO controls for cell culture experiments.

SPNS2 mRNA [2] = assay: SPNS2 qPCR in mouse pancreas; type: in vivo
Procedure: as §1

CYP26A1 mRNA [3] = assay: CYP26a1 mRNA in primary human hepatocytes; type: cell-based; details: high fat media, 5, 15, 40 µM, Day 4 to Day 10
Procedure: (§2) Experiments with primary human hepatocytes were performed by CN-Bio (Cambridge, UK). Primary human hepatocytes (PHHs), human Kupffer cells (HKs) and human stellate cells (HSCs) were seeded onto CN-Bio's PhysioMimix LC12 MPS culture plates at 6×10^5 cells for PHHs and 6×10^4 cells for HKs and HSCs in 1.6 ml of CN-Bio's HEP-lean media with 5% FCS. Throughout the experiment the cells were maintained at a flow rate of 1 μl/s. After 24 h (Day 1) of seeding, the media was changed to HEP-lean media and the cells were incubated until day 4 to allow the cells to form microtissues. At day 4 post seeding, media was changed to HEP-fat media and treated with DMSO or NCT (5, 15, 40 μM). Media was replaced on days 6 and 8. Cells were harvested on day 10 for RNA extraction. Data are presented as mean ±SEM of three or more samples as indicated. Statistical significance was assessed using Student's t-test, ANOVA or R^2 coefficient of correlation.

LC3B = assay: anti-LC3B Western blot in T6PNE cells; type: cell-based, human; details: 10 μM
Procedure: Whole-cell extracts were prepared by incubation in RIPA buffer (Invitrogen) containing protease inhibitors (Calbiochem, San Diego, Calif.). Protein ([…]) was separated on 12% or 16% Tri-Glycine gels (Invitrogen) and transferred to Immobilon P membrane (0.2 μm pore, Millipore). After 1 h in phosphate-buffered saline-Tween (PBST) with 3% milk, membrane was incubated with antibodies to HNF4α (mouse, Novus, 1:1000), LC3B (rabbit, Novus, 1:500), p62 (SQSTM1, mouse, Santa Cruz, 1:1000) or β-actin (mouse, Santa Cruz, 1:2000), followed by secondary antibody conjugated to horseradish peroxidase (1:5000, Jackson Immune).

dihydroceramides = assay: lipidomic analysis of livers from mice injected IP; type: in vivo, mouse; details: livers from mice injected IP for 2 weeks
Procedure: Ceramides and dihydroceramides were measured in the UCSD Lipidomics Core Facility as previously described (Quehenberger et al.). Briefly, samples were extracted using the butanol: methanol (BUME) method. The lipid layer was collected and run on a Thermo-Vanquish UPLC (Thermo Scientific) with a Cortecs T3 (C18), 2.1 mm×150 mm; 1.8 uT3 column and a binary solvent system. Mass spectrometry employed a Thermo Q Exactive instrument with MS/MS data dependent acquisition scan mode and LipidSearch software (Thermo Fisher Scientific).

CYP26A1 mRNA [4] = assay: hepatic CYP26A1 mRNA in DIO mice; type: in vivo; details: mouse liver
Procedure: as §1
For dose response experiments, mice were injected intraperitoneally with 10% DMSO as vehicle control or 4 different doses of NCT (30, 60, 120 and 240 mg/kg of body weight) dissolved in 10% DMSO. Mice received 2 doses per day with a 5 h interval between injections for 3 days. To test the effect of NCT (Sundia MediTech Company, Ltd., Custom synthesis), 200 mg/kg was injected IP bid for 14 days. On day 15, mice received a final dose of NCT followed by IP injection with 3 g/kg dextrose. One h later, blood samples were collected and mice were euthanized using pentobarbital. Total mouse, liver and epididymal fat pad weights were measured. […]

[5] = type: in vivo; details: mice, 30, 60, 120 and 240 mg/kg bid for 3 days, IP
Procedure: For dose response experiments, mice were injected intraperitoneally with 10% DMSO as vehicle control or 4 different doses of NCT (30, 60, 120 and 240 mg/kg of body weight) dissolved in 10% DMSO. Mice received 2 doses per day with a 5 h interval between injections for 3 days. To test the effect of NCT (Sundia MediTech Company, Ltd., Custom synthesis), 200 mg/kg was injected IP bid for 14 days. On day 15, mice received a final dose of NCT followed by IP injection with 3 g/kg dextrose. One h later, blood samples were collected and mice were euthanized using pentobarbital. Total mouse, liver and epididymal fat pad weights were measured. Dissected liver samples were washed in cold PBS, cut into small pieces and distributed for analyses. For RNA isolation and ELISA, liver samples were snap frozen using liquid nitrogen and stored at −80° C. For histomorphometry and immunofluorescence analysis, liver samples were fixed in 4% of cold PFA and processed for histology. All animal experiments were approved by the Institutional Animal Care and Use Committee (IACUC) of the Sanford Burnham Prebys Medical Discovery Institute in accordance with national regulations.
Having established that NCT reduces the level of stored fat in cells in vitro, it was of interest to determine its effect in vivo. […]

CYP26A1 mRNA [6] = assay: CYP26A1 mRNA in T6PNE cells; type: cell-based, human; details: 2 days, 0.25 mM palmitate, NCT 10 μM, 4-OH-RA 20 μM
Procedure: as §1

HNF4a mRNA = HNF4a mRNA in primary human hepatocytes; type: cell-based; details: high fat media, 5, 15, 40 µM, Day 4 to Day 10
Procedure: as §2

SPNS2 mRNA [7] = assay: SPNS2 qPCR in T6PNE cells; type: cell-based, human
Procedure: as §1

SPNS2 mRNA [8] = assay: SPNS2 mRNA in primary human hepatocytes; type: cell-based; details: high fat media, 5, 15, 40 µM, Day 4 to Day 10
Procedure: as §2

Structure (SMILES): O=C(/C=C/c1ccc(O)c(O)c1)NCCc1ccc(O)cc1 [NCT, N-trans-caffeoyltyramine]
- hepatic steatosis after oral administration (hepatic steatosis): effective in reducing hepatic steatosis in mice
- SPNS2 expression in mouse liver (SPNS2 mRNA [1]): did not induce a change in SPNS2 expression; also recorded: not mouse liver
- SPNS2 expression in mouse pancreas (SPNS2 mRNA [2]): induced SPNS2 expression
- CYP26a1 mRNA (CYP26A1 mRNA [3]): induced CYP26a1; also recorded: significantly induced
- LC3B-II to LC3B-I ratio (LC3B): induced increases
- decrease in ceramide/dihydroceramide ratio in liver (dihydroceramides): evident as well
- hepatic CYP26A1 mRNA (CYP26A1 mRNA [4]): induced CYP26a1
- tolerability [5]: well tolerated
- CYP26A1 mRNA level (CYP26A1 mRNA [6]): induced CYP26a1
- HNF4a mRNA (HNF4a mRNA): significantly induced
- SPNS2 expression (mRNA) (SPNS2 mRNA [7]): induced SPNS2 expression
- SPNS2 expression (mRNA) (SPNS2 mRNA [7]; listed as N-trans-caffeoyltyramine): induced the expression
- SPNS2 mRNA (SPNS2 mRNA [8]): did not induce a change in SPNS2 expression
